Measurements reported in patent US20250019370A1, “L-LYSINE SALT OF 4-CHLORO-5-[4-(2,6-DICHLOROPHENYL)SULFONYLPIPERAZIN-1-YL]-1-BENZOFURAN-2-CARBOXYLIC ACID AND VARIOUS FORMS THEREOF” (ENYO PHARMA, priority 2023, published 2025).

Assays:
[1] = Pharmacokinetic study Experiment #2, oral administration in rats; type: in vivo, rat; settings: 50 mg EqEYP001/Kg
Protocol: In a second study (Experiment #2), EYP001 and EYP001 L-lysine salt Form I in aqueous formulations (0.5% CMC, 0.25% Tween 80, water) were orally administrated at a dose of 50 mg EqEYP001/Kg in 8 male rats for each compound. Blood samples were taken at 0.25 h, 0.5 h, 1 h, 2 h, 4 h, 6 h, 8 h, 12 h, and 24 h after oral administration.

[2] = Solubility kinetics in FaSSIF medium; type: physicochemical
Protocol: The solubility kinetics of the salt forms as well as the native EYP001 free acid form were determined in FaSSIF and FeSSIF media, and in a pH 4.5 acetate buffer as detailed below: The samples were prepared by adding an excess of each tested bulk (salt or native EYP001) to a given volume of test medium. The suspension was stirred by orbital stirring over 1 hour (in both pH 4.5 acetate buffer and FeSSIF medium) or 24 hours ([…] medium) at 37° C., protected from light. In FaSSIF medium, the soluble concentration was assessed after 24 hours of stirring. […] At each time point, the “supernatant” was isolated and diluted in a solvent mixture allowing its injection into the chromatographic system. The concentration in solution in the test medium was determined by HPLC with external standardization.

[3] = Solubility kinetics in pH 4.5 acetate buffer; type: physicochemical; settings: for Soluble fraction: 37 ° C., listed as EYP001 L-Lysine salt (Form I)
[4] = Pharmacokinetic study Experiment #3, oral administration in rats; type: in vivo, rat; settings: 10 mg EqEYP001/Kg
Protocol: In a third study (Experiment #3), EYP001 and EYP001 L-lysine salt Form I in aqueous formulations (0.5% CMC, 0.25% Tween 80, water) were orally administrated at a dose of 10 mg EqEYP001/Kg in 6-8 male rats for each compound. Blood samples were taken at 0.25 h, 0.5 h, 1 h, 2 h, 4 h, 6 h, 8 h, 12 h, and 24 h after oral administration.

[5] = Pharmacokinetic study Experiment #1, oral administration in rats; type: in vivo, rat; settings: 50 mg EqEYP001/Kg
Protocol: In a first study (Experiment #1), EYP001, EYP001 Meglumine salt, and EYP001 L-lysine salt Form I in aqueous formulations (0.5% CMC, 0.25% Tween 80, water) were orally administrated at a dose of 50 mg EqEYP001/Kg in 3 male rats for each compound. Blood samples were taken at 0.25 h, 0.5 h, 1 h, 2 h, 4 h, 6 h, 8 h, 12 h, and 24 h after oral administration.

[6] = Thermogravimetric analysis (TGA), mass losses upon heating; type: physicochemical; settings: listed as EYP001 L-lysine salt (sample A)
Protocol: Thermogravimetric analysis was performed on a TA Instruments TGA Hi-Res 2950 apparatus equipped with an evolved gas analysis furnace. A sample was placed in an opened aluminium basket and analysed according to the following conditions: […]

[7] = Solubility kinetics in FeSSIF medium; type: physicochemical; settings: for Soluble fraction: 37 ° C.; for Soluble fraction / pH: listed as EYP001 L-Lysine salt (Form I); for pH: pH printed with the soluble fraction
[8] = male rats, versus EYP001 free acid

For NCCCC[C@H](N)C(=O)O.O=C(O)c1cc2c(Cl)c(N3CCN(S(=O)(=O)c4c(Cl)cccc4Cl)CC3)ccc2o1 [EYP001 L-lysine salt Form I, L-lysine salt of 4-chloro-5-[4-(2,6-dichlorophenyl)sulfonylpiperazin-1-yl]-1-benzofuran-2-carboxylic acid], the “Mean AUC0-24” value ([1]; male rats, aqueous formulation) was 42500 ng·h/mL, the “Mean Cmax” value ([1]; male rats, aqueous formulation) was 7870 ng/mL and the “% increase/EYP001 (AUC0-24)” value [1, 8] was “+47%”. The “% increase/EYP001 (Cmax)” value [1, 8] was “+41%”, the “exposure and C max compared to EYP001 free acid” value ([1]; rat) was “superiority” and the “solubility compared to EYP001 free acid, Piperazine, Morpholine, Imidazole, Benethamine, Zinc and Cyclohexylamine salts” value ([2]; 37° C.) was “higher solubility”. The Soluble fraction ([2]; 37° C., after 24 h) was 0.31 mg/mL of EYP001, the pH ([2]; pH given with the soluble fraction, after 24 h) was 6.6 and the “solubility compared to EYP001 free acid, Benethamine, Zinc, Benzathine and Ethylene diamine salts” value ([3]; 37° C.) was “much higher solubility”. The Soluble fraction ([3]; after 0.5 h) was 0.010 mg/mL of EYP001, the Soluble fraction ([3]; after 1 h) was 0.006 mg/mL of EYP001 and the “Mean AUC0-24” value ([4]; male rats, aqueous formulation) was 7311 ng·h/mL. For the same compound, the “Mean Cmax” value ([4]; male rats, aqueous formulation) was 2947 ng/mL, the “% increase/EYP001 (AUC0-24)” value [4, 8] was “+84%” and the “% increase/EYP001 (Cmax)” value [4, 8] was “+118%”. The “exposure and C max compared to EYP001 free acid” value ([4]; rat) was “superiority”, the “variability of the C max (CV %) compared to EYP001 free acid” value ([4]; rat) was “strongly reduced” and the “variability of the exposure (CV %) compared to EYP001 free acid” value ([4]; rat) was “strongly reduced”. For the same compound, the “Mean AUC0-24” value ([5]; male rats, aqueous formulation) was 60011 ng·h/mL, the “Mean Cmax” value ([5]; male rats, aqueous formulation) was 8827 ng/mL and the “% increase/EYP001 (AUC0-24)” value [5, 8] was “+15%”. For the same compound, the “% increase/EYP001 (Cmax)” value [5, 8] was “+26%”, the “C max compared to EYP001 free acid and EYP001 Meglumine salt” value ([5]; rat) was “higher C max” and the “exposure (AUC0-24) compared to EYP001 free acid and EYP001 Meglumine salt” value ([5]; rat) was “superior exposure”. For the same compound, the “onset temperature of thermal decomposition (TGA)” value ([6]; heater ramp 10 ° C./min, nitrogen) was 254 °C, the “mass loss before the beginning of thermal decomposition (TGA)” value ([6]; upon heating) was “no mass loss” and the “solubility compared to EYP001 free acid and EYP001 Potassium salt” value ([7]; 37° C.) was “higher solubility”. The Soluble fraction ([7]; after 0.5 h) was 0.44 mg/mL of EYP001, the Soluble fraction ([7]; after 1 h) was 0.46 mg/mL of EYP001 and the pH ([7]; after 0.5 h) was “(pH = 5.0)”. For the same compound, the pH ([7]; after 1 h) was “(pH = 5.0)”.
